Laboratory results as given in patent publication US20250268857A1 (priority 2020, published 2025).
Values joined by “and” are separate entries in the source; they are usually repeats but may differ in a detail not shown here. Identical values can stand only once. Like-named read-outs stand apart in the source and are kept apart here.

Experiments:
[1] = tested on: human influenza viruses and avian influenza viruses with different anti-HN types (H1N1, H1N1 subtype, and H7N7); assay type: cell-based, influenza virus; settings: zinc gluconate concentration of 7,500 ppm
[2] = tested on: influenza A virus (Kumamoto/Y5/67 (H2/N2)); set-up: species or system guinea pigs; settings: guinea pig, in vivo
[3] = assay type: physicochemical; settings: samples with 2,000 to 30,000 ppm zinc gluconate
Description: Zinc oxide nanoparticles having a diameter of 50 to 70 nm were dispersed and stirred into an aqueous solution at room temperature while the solution temperature was prevented from exceeding room temperature. The aqueous solution contained 50% of organic acid (gluconic acid in the embodiment) that partially lactonizes when dissolved in water.

[4] = tested on: feline coronavirus (Feline Enteric Coronavirus, WSU 79-1683); experiment: Coronavirus inactivation test (titration on Felis catus whole fetus cells); assay type: cell-based; settings: 7500 ppm aqueous solution of zinc gluconate; in 30 minutes
Protocol: First, 0.9 ml of 7500 ppm of aqueous solution of zinc gluconate (phosphate buffered saline (PBS) was used for comparison) used as a sample solution and 0.1 ml of feline coronavirus solution (Feline Enteric Coronavirus, WSU 79-1683, 1.3× 10^5 EID50/0.1 ml) were mixed in a vortex mixer and reacted at room temperature (20° C.) for 30 minutes. The mixture solution of the sample and the virus was diluted to 100 times with a 5-times diluted Soybean-Casein Digest Broth with Lecithin & Polysorbate 80 (SCDLP) to stop the reaction and obtain a sample for measuring virus infection values.
Felis catus whole fetus cells used for testing were pre-seeded in 96-well plates and cultured in a CO2 incubator for 4 days. After this, the culture supernatant was removed and replaced with Dulbecco's Modified Eagle's medium containing 1% fetal bovine serum (available from Nissui Pharmaceutical Co., Ltd.).
The wells from which the culture medium had been removed were inoculated with 25 μl of the above sample for measuring virus infection values or with a 10-fold dilution of this in PBS, and the virus was allowed to infect the cells at 37° C. for 1 hour. […] After incubation, the cytopathic effect caused by virus growth was observed under a microscope, and the virus infection titer was calculated by the Reed and Muench method.

[5] = tested on: avian influenza virus (A/whistling swan/Shimane/499/83 (H5N3)); assay type: cell-based; settings: reacted 10 minutes at room temperature (20° C.), sterile distilled water control 7.75
feline caliciviruses = assay type: cell-based, feline calicivirus

Question: With zinc gluconate as the substance, how does the “reduction in infectivity titer” value [1] read?
Answer: same reduction in infectivity titer

Question: And the Infection rate [2]?
Answer: 4/10 and 1/10 and 3/10

Question: And the pH [3]?
Answer: 3.6

Question: And the “titer reduced to (fraction)” value [4]?
Answer: 1/100

Question: What about the “Virus Infectivity Titer” value ([5]; zinc gluconate 2,000 ppm) of the same substance?
Answer: 6.25 log EID50/0.1 ml

Question: What about the “Virus Infectivity Titer” value ([5]; zinc gluconate 3,750 ppm) of the same substance?
Answer: 4.5 log EID50/0.1 ml

Question: What about the “Virus Infectivity Titer” value ([5]; zinc gluconate 5,000 ppm) of the same substance?
Answer: 3.5 log EID50/0.1 ml

Question: And the “Virus Infectivity Titer” value ([5]; zinc gluconate 7,500 ppm)?
Answer: 2.25 log EID50/0.1 ml

Question: And the “Virus Infectivity Titer” value ([5]; zinc gluconate 10,000 ppm)?
Answer: 2.5 log EID50/0.1 ml

Question: What about the “Virus Infectivity Titer” value ([5]; zinc gluconate 30,000 ppm) of the same substance?
Answer: 5.75 log EID50/0.1 ml

Question: What about the “reduction in infectivity titer” value (feline caliciviruses) of the same substance?
Answer: 94%
